Patent US11390604B2 (Hoffmann-La Roche Inc., priority 2019, dated 2022)
Where a name gives a salt, the structure may show the parent alone.

system: Acinetobacter baumannii ATCC 17961; assay: Antimicrobial susceptibility testing: 90% growth inhibitory concentration (IC90) determination; type: cell-based; details: ATCC17961, Acinetobacter baumannii ATCC 17961, Iso-Sensitest broth, read-out: ATCC 17961 IC90
Summary of the method: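 Broth microdilution in Iso-Sensitest medium, twofold series (e.g. 50 to 0.097 μM final), ~5×10^5 CFU/ml inoculum, 35±2 °C. OD600 read every 20 min over 16 h. IC90 derived from growth inhibition during logarithmic phase.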

Row | Structure (SMILES) | IC90
1 | CCn1cc(-c2cnc(C(=O)Nc3ccc(C(=O)N4CCN(C(=O)N[C@H]5C[C@@H](N)C5)CC4)c(Cl)c3)n2C)c(C(F)(F)F)n1 [Example 168, rac-N-((1s,3s)-3-aminocyclobutyl)-4-(2-chloro-4-(5-(1-ethyl-3-(trifluoromethyl)-1H-pyrazol-4-yl)-1-methyl-1H-imidazole-2-carboxamido)benzoyl)piperazine-1-carboxamide Hydrochloride] | 347 nM
2 | CCc1cc(NC(=O)c2ncc(-c3cn(CC#N)nc3C(F)(F)F)n2C)ccc1C(=O)NCCOCC(C)(C)N [Example 170, N-(4-((2-(2-amino-2-methylpropoxy)ethyl)carbamoyl)-3-ethylphenyl)-5-(1-(cyanomethyl)-3-(trifluoromethyl)-1H-pyrazol-4-yl)-1-methyl-1H-imidazole-2-carboxamide] | 234 nM
3 | C=Cn1cc(-c2cnc(C(=O)Nc3ccc(C(=O)N4CCN(C(=O)NC5CNC5)CC4)c(Cl)c3)n2C)c(C(F)(F)F)n1 [Example 171, N-(azetidin-3-yl)-4-(2-chloro-4-(1-methyl-5-(3-(trifluoromethyl)-1-vinyl-1H-pyrazol-4-yl)-1H-imidazole-2-carboxamido)benzoyl)piperazine-1-carboxamide] | 207 nM
4 | Cn1c(-c2cn(C3CC3(F)F)nc2C(F)(F)F)cnc1C(=O)Nc1ccc(C(=O)N[C@H]2[C@@H]3CN(C(=O)C4CCNCC4)C[C@@H]32)c(Cl)c1 (stereo partly drawn) [Example 172, N-(3-chloro-4-(((1R,5S,6s)-3-(piperidine-4-carbonyl)-3-azabicyclo[3.1.0]hexan-6-yl)carbamoyl)phenyl)-5-(1-(2,2-difluorocyclopropyl)-3-(trifluoromethyl)-1H-pyrazol-4-yl)-1-methyl-1H-imidazole-2-carboxamide formate] | 146 nM
5 | Cn1c(-c2cn(C3CCC3)nc2C(F)(F)F)cnc1C(=O)Nc1ccc(C(=O)N[C@H]2[C@@H]3CN(C(=O)C4CCNCC4)C[C@@H]32)c(Cl)c1 [Example 173, N-(3-chloro-4-(((1R,5S,6s)-3-(piperidine-4-carbonyl)-3-azabicyclo[3.1.0]hexan-6-yl)carbamoyl)phenyl)-5-(1-cyclobutyl-3-(trifluoromethyl)-1H-pyrazol-4-yl)-1-methyl-1H-imidazole-2-carboxamide formate] | 234 nM
6 | Cn1c(-c2cn(CC3CCC3)nc2C(F)(F)F)cnc1C(=O)Nc1ccc(C(=O)N[C@H]2[C@@H]3CN(C(=O)C4CCNCC4)C[C@@H]32)c(Cl)c1 [Example 174, N-(3-chloro-4-(((1R,5S,6s)-3-(piperidine-4-carbonyl)-3-azabicyclo[3.1.0]hexan-6-yl)carbamoyl)phenyl)-5-(1-(cyclobutylmethyl)-3-(trifluoromethyl)-1H-pyrazol-4-yl)-1-methyl-1H-imidazole-2-carboxamide formate] | 250 nM
7 | Cn1c(-c2cn(CC#N)nc2C(F)(F)F)cnc1C(=O)Nc1ccc(C(=O)N[C@H]2[C@@H]3CN(C(=O)N[C@@H]4CNC[C@H]4O)C[C@@H]32)c(Cl)c1 [Example 175, (1R,5S,6s)-6-(2-chloro-4-(5-(1-(cyanomethyl)-3-(trifluoromethyl)-1H-pyrazol-4-yl)-1-methyl-1H-imidazole-2-carboxamido)benzamido)-N-(trans-4-hydroxypyrrolidin-3-yl)-3-azabicyclo[3.1.0]hexane-3-carboxamide Formate] | 330 nM
8 | C=C(F)Cn1cc(-c2cnc(C(=O)Nc3ccc(C(=O)N[C@H]4[C@@H]5CN(C(=O)N[C@@H]6CNC[C@H]6O)C[C@@H]54)c(Cl)c3)n2C)c(C(F)(F)F)n1 [Example 176, (1R,5S,6s)-6-(2-chloro-4-(5-(1-(2-fluoroallyl)-3-(trifluoromethyl)-1H-pyrazol-4-yl)-1-methyl-1H-imidazole-2-carboxamido)benzamido)-N-(trans-4-hydroxypyrrolidin-3-yl)-3-azabicyclo[3.1.0]hexane-3-carboxamide Formate] | 155 nM
9 | Cn1c(-c2cn(CC(F)F)nc2C(F)(F)F)cnc1C(=O)Nc1ccc(C(=O)N[C@H]2[C@@H]3CN(C(=O)N[C@H]4C[C@@H](N)C4)C[C@@H]32)c(Cl)c1 [Example 177, (1R,5S,6s)-N-(cis-3-aminocyclobutyl)-6-(2-chloro-4-(5-(1-(2,2-difluoroethyl)-3-(trifluoromethyl)-1H-pyrazol-4-yl)-1-methyl-1H-imidazole-2-carboxamido)benzamido)-3-azabicyclo[3.1.0]hexane-3-carboxamide] | 229 nM
10 | Cn1c(-c2cn(C3CC3(F)F)nc2C(F)(F)F)cnc1C(=O)Nc1ccc(C(=O)NCC2(N)CC2)c(Cl)c1 (stereo not drawn) [Example 178, N-(4-(((1-aminocyclopropyl)methyl)carbamoyl)-3-chlorophenyl)-5-(1-(2,2-difluorocyclopropyl)-3-(trifluoromethyl)-1H-pyrazol-4-yl)-1-methyl-H-imidazole-2-carboxamide Formate] | 86 nM
11 | Cn1c(-c2cn([C@@H]3CC3(F)F)nc2C(F)(F)F)cnc1C(=O)Nc1ccc(C(=O)N[C@H]2[C@@H]3CN(C(=O)N[C@@H]4CNC[C@H]4O)C[C@@H]32)c(Cl)c1 [Example 181, (1S,5R)-6-[[2-chloro-4-[[5-[1-[(1R)-2,2-difluorocyclopropyl]-3-(trifluoromethyl)pyrazol-4-yl]-1-methyl-imidazole-2-carbonyl]amino]benzoyl]amino]-N-[(3R,4R)-4-hydroxypyrrolidin-3-yl]-3-azabicyclo[3.1.0]hexane-3-carboxamide; Hydrochloride] | 64 nM

Other lines, results leading:

Row | IC90 | Structure (SMILES)
12 | 1140 nM | CCc1cc(NC(=O)c2ncc(-c3cn(CC(F)F)nc3C(F)(F)F)n2C)ccc1C(=O)N1CCN(C(=O)C2(O)CCNCC2)CC1 [Example 155, 5-[1-(2,2-difluoroethyl)-3-(trifluoromethyl)pyrazol-4-yl]-N-[3-ethyl-4-[4-(4-hydroxypiperidine-4-carbonyl)piperazine-1-carbonyl]phenyl]-1-methylimidazole-2-carboxamide;formic acid]
13 | 758 nM | CCc1cc(NC(=O)c2ncc(-c3cn(CC(F)F)nc3C(F)(F)F)n2C)ccc1C(=O)N1CCN(C(=O)[C@@H]2CCNC2)CC1 [Example 156, 5-[1-(2,2-difluoroethyl)-3-(trifluoromethyl)pyrazol-4-yl]-N-[3-ethyl-4-[4-[(3R)-pyrrolidine-3-carbonyl]piperazine-1-carbonyl]phenyl]-1-methylimidazole-2-carboxamide;formic acid]
14 | 1000 nM | CCc1cc(NC(=O)c2ncc(-c3cn(CC(F)F)nc3C(F)(F)F)n2C)ccc1C(=O)N1CCN(C(=O)NCC2(O)CNC2)CC1 [Example 157, 4-[4-[[5-[1-(2,2-difluoroethyl)-3-(trifluoromethyl)pyrazol-4-yl]-1-methylimidazole-2-carbonyl]amino]-2-ethylbenzoyl]-N-[(3-hydroxyazetidin-3-yl)methyl]piperazine-1-carboxamide;formic acid]
15 | 1200 nM | CCc1cc(NC(=O)c2ncc(-c3cn(Cc4cccnc4)nc3C(F)(F)F)n2C)ccc1C(=O)N1CCN(C(=O)C2CCN(C)CC2)CC1 [Example 158, N-[3-ethyl-4-[4-(1-methylpiperidine-4-carbonyl)piperazine-1-carbonyl]phenyl]-1-methyl-5-[1-(pyridin-3-ylmethyl)-3-(trifluoromethyl)pyrazol-4-yl]imidazole-2-carboxamide;formic acid]
16 | 1160 nM | CCc1cc(NC(=O)c2ncc(-c3cn(Cc4cccnc4)nc3C(F)(F)F)n2C)ccc1C(=O)N1CCN(C(=O)C2CCNCC2)CC1 [Example 159, N-[3-ethyl-4-[4-(piperidine-4-carbonyl)piperazine-1-carbonyl]phenyl]-1-methyl-5-[1-(pyridin-3-ylmethyl)-3-(trifluoromethyl)pyrazol-4-yl]imidazole-2-carboxamide;formic acid]
17 | 1500 nM | CCc1cc(NC(=O)c2ncc(-c3cn(Cc4cccnc4)nc3C(F)(F)F)n2C)ccc1C(=O)N1CCN(C(=O)C2(O)CCNCC2)CC1 [Example 160, N-[3-ethyl-4-[4-(4-hydroxypiperidine-4-carbonyl)piperazine-1-carbonyl]phenyl]-1-methyl-5-[1-(pyridin-3-ylmethyl)-3-(trifluoromethyl)pyrazol-4-yl]imidazole-2-carboxamide;formic acid]
18 | 1280 nM | CCc1cc(NC(=O)c2ncc(-c3cn(Cc4cccnc4)nc3C(F)(F)F)n2C)ccc1C(=O)N1CCN(C(=O)[C@@H]2CCNC2)CC1 [Example 161, N-[3-ethyl-4-[4-[(3R)-pyrrolidine-3-carbonyl]piperazine-1-carbonyl]phenyl]-1-methyl-5-[1-(pyridin-3-ylmethyl)-3-(trifluoromethyl)pyrazol-4-yl]imidazole-2-carboxamide;formic acid]
19 | 1470 nM | CCc1cc(NC(=O)c2ncc(-c3cn(Cc4cccnc4)nc3C(F)(F)F)n2C)ccc1C(=O)N1CCN(C(=O)NCC2(O)CNC2)CC1 [Example 162, 4-[2-ethyl-4-[[1-methyl-5-[1-(pyridin-3-ylmethyl)-3-(trifluoromethyl)pyrazol-4-yl]imidazole-2-carbonyl]amino]benzoyl]-N-[(3-hydroxyazetidin-3-yl)methyl]piperazine-1-carboxamide;formic acid]

same assay, conditions: Acinetobacter baumannii, ATCC17961, read-out: ATCC 17961 IC90, Acinetobacter baumannii ATCC 17961, Iso-Sensitest broth

Row | Structure (SMILES) | IC90
20 | Cn1c(-c2cn(CC3CC3)nc2C(F)(F)F)cnc1C(=O)Nc1ccc(C(=O)N2CCN(C(=O)N[C@H]3C[C@@H](N)C3)CC2)c(Cl)c1 [Example 169, rac-N-((1s,3s)-3-aminocyclobutyl)-4-(2-chloro-4-(5-(1-(cyclopropylmethyl)-3-(trifluoromethyl)-1H-pyrazol-4-yl)-1-methyl-1H-imidazole-2-carboxamido)benzoyl)piperazine-1-carboxamide Hydrochloride] | 245 nM
21 | Cn1c(-c2cn(CCF)nc2C(F)(F)F)cnc1C(=O)Nc1ccc(C(=O)N2CCN(C(=O)C3(O)CCCNC3)CC2)c(Cl)c1 (stereo not drawn) [Example 180, N-[3-chloro-4-[4-(3-hydroxypiperidine-3-carbonyl)piperazine-1-carbonyl]phenyl]-5-[1-(2-fluoroethyl)-3-(trifluoromethyl)pyrazol-4-yl]-1-methylimidazole-2-carboxamide; Trihydrochloride] | 397 nM
